Values quoted from earlier work in US20040170688A1, “Enteric formulation of fluoxetin” (priority 2001, published 2004).

Details: published literature

elimination half-life | SMILES
very long | CNCCC(Oc1ccc(C(F)(F)F)cc1)c1ccccc1 (stereo not drawn) [Fluoxetin, N-Methyl-3-phenyl-3-[(α,α,α-trifluorotolyl)oxyl] propylamine]
very long | NCCC(Oc1ccc(C(F)(F)F)cc1)c1ccccc1 (centres unmarked) [NorFluoxetin]
